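GI50: concentration for 50% inhibition of growth. The concentration for full growth arrest is given as TGI.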
Key:
Experiment in all cases: DTP human tumour cell line panel, 384-well format
[1] = tested on: A498 renal
[2] = tested on: A549 NSCLC
[3] = tested on: ACHN renal
[4] = tested on: BT-549 breast
[5] = tested on: COLO 205 colon
[6] = tested on: DU-145 prostate
[7] = tested on: EKVX NSCLC
[8] = tested on: HCC-2998 colon
[9] = tested on: HCT-116 colon
[10] = tested on: HCT-15 colon
[11] = tested on: HL-60(TB) leukemia
[12] = tested on: HOP-62 NSCLC
[13] = tested on: HOP-92 NSCLC
[14] = tested on: IGROV1 ovarian
[15] = tested on: KM12 colon
[16] = tested on: LOX IMVI melanoma
[17] = tested on: M14 melanoma
[18] = tested on: MALME-3M melanoma
[19] = tested on: MCF7 breast
[20] = tested on: MDA-MB-231 breast
[21] = tested on: MDA-MB-435 melanoma
[22] = tested on: MDA-MB-468 breast
[23] = tested on: MOLT-4 leukemia
[24] = tested on: NCI-H226 lung
[25] = tested on: NCI-H23 lung
[26] = tested on: NCI-H322M lung
[27] = tested on: NCI-H460 NSCLC
[28] = tested on: NCI-H522 lung
[29] = tested on: NCI/ADR-RES ovarian
[30] = tested on: OVCAR-3 ovarian
[31] = tested on: OVCAR-4 ovarian
[32] = tested on: OVCAR-5 ovarian
[33] = tested on: PC-3 prostate
[34] = tested on: RPMI-8226 leukemia
[35] = tested on: RXF 393 renal
[36] = tested on: SF-268 CNS
[37] = tested on: SF-295 CNS
[38] = tested on: SF-539 CNS
[39] = tested on: SK-MEL-28 melanoma
[40] = tested on: SK-MEL-5 melanoma
[41] = tested on: SN12C renal
[42] = tested on: SNB-19 CNS
[43] = tested on: SNB-75 CNS
[44] = tested on: SR leukemia
[45] = tested on: T-47D breast
[46] = tested on: TK-10 renal
[47] = tested on: U251 glioblastoma
[48] = tested on: UACC-257 melanoma
[49] = tested on: UACC-62 melanoma
[50] = tested on: 786-0 renal
[51] = tested on: CAKI-1 renal
[52] = tested on: CCRF-CEM leukemia
[53] = tested on: HS 578T breast
[54] = tested on: HT29 colon
[55] = tested on: OVCAR-8 ovarian
[56] = tested on: SK-OV-3 ovarian
[57] = tested on: SW-620 colon
[58] = tested on: UO-31 renal

CCNC(=O)C[C@@H]1N=C(c2ccc(Cl)cc2)c2cc(OC)ccc2-n2c(C)nnc21
GI50 [1]: 0.662 µM
TGI [1]: 81.7 µM
GI50 [2]: 7.42 µM
TGI [2]: > 100 µM
GI50 [3]: 3.55 µM
TGI [3]: > 100 µM
GI50 [4]: 0.375 µM
TGI [4]: 23.3 µM
GI50 [5]: 0.496 µM
TGI [5]: 15.6 µM
GI50 [6]: 12.8 µM
TGI [6]: > 100 µM
GI50 [7]: 25.4 µM
TGI [7]: > 100 µM
GI50 [8]: 0.0861 µM
TGI [8]: 10.8 µM
GI50 [9]: 4.23 µM
TGI [9]: > 100 µM
GI50 [10]: 0.613 µM
TGI [10]: 15 µM
GI50 [11]: 0.0257 µM
TGI [11]: 0.131 µM
GI50 [12]: 0.246 µM
TGI [12]: 13.8 µM
GI50 [13]: 26.4 µM
TGI [13]: > 100 µM
GI50 [14]: 0.394 µM
TGI [14]: 16.7 µM
GI50 [15]: 5.56 µM
TGI [15]: > 100 µM
GI50 [16]: 0.196 µM
TGI [16]: 0.551 µM
GI50 [17]: 2.35 µM
TGI [17]: 55.2 µM
GI50 [18]: 12.3 µM
TGI [18]: 65.9 µM
GI50 [19]: < 0.01 µM
TGI [19]: > 100 µM
GI50 [20]: 5.87 µM
TGI [20]: > 100 µM
GI50 [21]: 8.67 µM
TGI [21]: 77.6 µM
GI50 [22]: 8.18 µM
TGI [22]: > 100 µM
GI50 [23]: 0.599 µM
TGI [23]: 15.7 µM
GI50 [24]: 1.63 µM
TGI [24]: 27.7 µM
GI50 [25]: 2.77 µM
TGI [25]: > 100 µM
GI50 [26]: 0.62 µM
TGI [26]: 34.6 µM
GI50 [27]: 4.05 µM
TGI [27]: > 100 µM
GI50 [28]: 0.213 µM
TGI [28]: 5.39 µM
GI50 [29]: 11.4 µM
TGI [29]: 36.2 µM
GI50 [30]: 0.324 µM
TGI [30]: 14.8 µM
GI50 [31]: 0.137 µM
TGI [31]: 0.899 µM
GI50 [32]: 0.296 µM
TGI [32]: 18.7 µM
GI50 [33]: 0.714 µM
TGI [33]: > 100 µM
GI50 [34]: 0.0747 µM
TGI [34]: 0.992 µM
GI50 [35]: 26 µM
TGI [35]: > 100 µM
GI50 [36]: 22.5 µM
TGI [36]: > 100 µM
GI50 [37]: 21.6 µM
TGI [37]: > 100 µM
GI50 [38]: 2.25 µM
TGI [38]: > 100 µM
GI50 [39]: 14.1 µM
TGI [39]: > 100 µM
GI50 [40]: 0.492 µM
TGI [40]: 18.2 µM
GI50 [41]: 0.742 µM
TGI [41]: > 100 µM
GI50 [42]: 1.63 µM
TGI [42]: > 100 µM
GI50 [43]: 28.3 µM
TGI [43]: > 100 µM
GI50 [44]: < 0.01 µM
TGI [44]: 58 µM
GI50 [45]: 15.4 µM
TGI [45]: > 100 µM
GI50 [46]: 0.48 µM
TGI [46]: 28.6 µM
GI50 [47]: 9.26 µM
TGI [47]: > 100 µM
GI50 [48]: 0.423 µM
TGI [48]: 30.3 µM
GI50 [49]: < 0.01 µM
TGI [49]: > 100 µM

CS(=O)(=O)c1ccc(Oc2cc(F)cc(C#N)c2)c2c1[C@H](O)[C@H](F)[C@@H]2F
GI50 [50]: > 100 µM
TGI [50]: > 100 µM
GI50 [1]: > 100 µM
TGI [1]: > 100 µM
GI50 [2]: > 100 µM
TGI [2]: > 100 µM
GI50 [3]: > 100 µM
TGI [3]: > 100 µM
GI50 [4]: > 100 µM
TGI [4]: > 100 µM
GI50 [51]: > 100 µM
TGI [51]: > 100 µM
GI50 [52]: > 100 µM
TGI [52]: > 100 µM
GI50 [5]: > 100 µM
TGI [5]: > 100 µM
GI50 [6]: > 100 µM
TGI [6]: > 100 µM
GI50 [7]: > 100 µM
TGI [7]: > 100 µM
GI50 [8]: > 100 µM
TGI [8]: > 100 µM
GI50 [9]: > 100 µM
TGI [9]: > 100 µM
GI50 [10]: > 100 µM
TGI [10]: > 100 µM
GI50 [11]: > 100 µM
TGI [11]: > 100 µM
GI50 [12]: > 100 µM
TGI [12]: > 100 µM
GI50 [13]: > 100 µM
TGI [13]: > 100 µM
GI50 [53]: > 100 µM
TGI [53]: > 100 µM
GI50 [54]: > 100 µM
TGI [54]: > 100 µM
GI50 [14]: > 100 µM
TGI [14]: > 100 µM
GI50 [15]: > 100 µM
TGI [15]: > 100 µM
GI50 [16]: > 100 µM
TGI [16]: > 100 µM
GI50 [17]: > 100 µM
TGI [17]: > 100 µM
GI50 [18]: > 100 µM
TGI [18]: > 100 µM
GI50 [19]: > 100 µM
TGI [19]: > 100 µM
GI50 [20]: > 100 µM
TGI [20]: > 100 µM
GI50 [21]: > 100 µM
TGI [21]: > 100 µM
GI50 [22]: > 100 µM
TGI [22]: > 100 µM
GI50 [23]: > 100 µM
TGI [23]: > 100 µM
GI50 [24]: > 100 µM
TGI [24]: > 100 µM
GI50 [25]: > 100 µM
TGI [25]: > 100 µM
GI50 [26]: > 100 µM
TGI [26]: > 100 µM
GI50 [27]: > 100 µM
TGI [27]: > 100 µM
GI50 [28]: > 100 µM
TGI [28]: > 100 µM
GI50 [29]: > 100 µM
TGI [29]: > 100 µM
GI50 [30]: > 100 µM
TGI [30]: > 100 µM
GI50 [31]: > 100 µM
TGI [31]: > 100 µM
GI50 [32]: > 100 µM
TGI [32]: > 100 µM
GI50 [55]: > 100 µM
TGI [55]: > 100 µM
GI50 [33]: > 100 µM
TGI [33]: > 100 µM
GI50 [34]: > 100 µM
TGI [34]: > 100 µM
GI50 [35]: > 100 µM
TGI [35]: > 100 µM
GI50 [36]: > 100 µM
TGI [36]: > 100 µM
GI50 [37]: > 100 µM
TGI [37]: > 100 µM
GI50 [38]: > 100 µM
TGI [38]: > 100 µM
GI50 [39]: > 100 µM
TGI [39]: > 100 µM
GI50 [40]: > 100 µM
TGI [40]: > 100 µM
GI50 [56]: > 100 µM
TGI [56]: > 100 µM
GI50 [41]: > 100 µM
TGI [41]: > 100 µM
GI50 [42]: > 100 µM
TGI [42]: > 100 µM
GI50 [43]: > 100 µM
TGI [43]: > 100 µM
GI50 [44]: > 100 µM
TGI [44]: > 100 µM
GI50 [57]: > 100 µM
TGI [57]: > 100 µM
GI50 [45]: > 100 µM
TGI [45]: > 100 µM
GI50 [46]: > 100 µM
TGI [46]: > 100 µM
GI50 [47]: > 100 µM
TGI [47]: > 100 µM
GI50 [48]: > 100 µM
TGI [48]: > 100 µM
GI50 [49]: > 100 µM
TGI [49]: > 100 µM
GI50 [58]: > 100 µM
TGI [58]: > 100 µM
